According to patent publication US9862716B2, “TRKA kinase inhibitors, compositions and methods thereof” (Merck Sharp & Dohme Corp., priority 2014, dated 2018):

Target: T1, human TrkA receptor (Homo sapiens, UniProt P04629)
T1 construct: host or cells: U2OS cells (PathHunter cell line)
Assay: DiscoverX PathHunter TrkA functional assay (NGF-stimulated U2OS cells)
Assay type: cell-based
Settings: U2OS cells expressing human TrkA-PK, Shc1-EA and p75NTR; compound 1 h, then NGF at ~80% of maximal response for 3 h; luminescence

T1 sequence (P04629 33-796): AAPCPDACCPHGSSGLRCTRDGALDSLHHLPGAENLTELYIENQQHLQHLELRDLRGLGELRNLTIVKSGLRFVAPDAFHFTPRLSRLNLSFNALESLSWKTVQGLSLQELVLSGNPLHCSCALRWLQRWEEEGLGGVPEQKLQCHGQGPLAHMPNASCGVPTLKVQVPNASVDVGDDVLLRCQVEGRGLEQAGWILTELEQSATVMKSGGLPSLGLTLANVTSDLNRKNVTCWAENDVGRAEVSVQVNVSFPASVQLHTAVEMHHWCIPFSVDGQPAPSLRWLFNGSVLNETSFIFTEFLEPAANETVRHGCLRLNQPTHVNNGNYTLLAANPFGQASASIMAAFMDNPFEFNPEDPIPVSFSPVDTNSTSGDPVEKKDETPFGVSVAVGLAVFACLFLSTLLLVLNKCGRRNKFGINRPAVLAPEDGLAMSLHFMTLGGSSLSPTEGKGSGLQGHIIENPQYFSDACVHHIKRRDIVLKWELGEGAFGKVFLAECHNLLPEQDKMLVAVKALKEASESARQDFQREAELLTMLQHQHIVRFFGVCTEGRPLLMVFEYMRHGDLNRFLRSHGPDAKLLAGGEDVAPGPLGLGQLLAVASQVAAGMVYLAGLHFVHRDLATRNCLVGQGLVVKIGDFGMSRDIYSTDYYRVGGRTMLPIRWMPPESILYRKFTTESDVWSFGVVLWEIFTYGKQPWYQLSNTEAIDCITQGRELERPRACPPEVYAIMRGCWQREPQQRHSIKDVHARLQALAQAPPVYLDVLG

With `Cn1ccc(-c2cc(C(=O)Nc3c(-c4ccccc4)nc4ccccn34)c(Cl)cc2C(F)(F)F)n1` [Compound 20, 2-chloro-5-(1-methyl-1H-pyrazol-3-yl)-N-(2-phenylimidazo[1,2-a]pyridin-3-yl)-4-(trifluoromethyl) benzamide] as the compound, how does the IC50 read?
Its IC50 is 0.73 nM.

For `Cn1ccc(-c2cc(C(=O)Nc3c(-c4ccccc4)nc4c(F)cccn34)ccc2C(F)(F)F)n1` [Compound 22, N-(8-fluoro-2-phenylimidazo[1,2-a]pyridin-3-yl)-3-(1-methyl-1H-pyrazol-3-yl)-4-(trifluoromethyl) benzamide], which IC50 is on record?
The IC50 was 1.9 nM.

How did the IC50 turn out when `CC(C)(O)c1ccn2c(NC(=O)c3cc(-c4ncccn4)c(C(F)(F)F)cc3F)c(-c3ccccc3)nc2c1` [Compound 53, 2-fluoro-N-[7-(1-hydroxy-1-methylethyl)-2-phenylimidazo[1,2-a]pyridin-3-yl]-5-pyrimidin-2-yl-4-(trifluoromethyl) benzamide] was run?
Its IC50 is 1.1 nM.

`Cn1ccc(-c2cc(C(=O)Nc3c(-c4ccccc4)nc4cccnn34)ccc2C(F)(F)F)n1` [Compound 6, 3-(1-methyl-1H-pyrazol-3-yl)-N-(2-phenylimidazo[1,2-b]pyridazin-3-yl)-4-(trifluoromethyl) benzamide] was tested. Which IC50 did it give?
The IC50 was 3.9 nM.

For `Cc1coc(-c2cc(C(=O)Nc3c(-c4ccccc4)nc4cc(C(C)(C)O)ccn34)ccc2C(F)(F)F)n1` [Compound 46, N-[7-(1-hydroxy-1-methylethyl)-2-phenylimidazo[1,2-a]pyridin-3-yl]-3-(4-methyl-1,3-oxazol-2-yl)-4-(trifluoromethyl) benzamide], which IC50 is on record?
The IC50 was 0.44 nM.

For `CC(O)c1ccn2nc(-c3ccccc3)c(NC(=O)c3ccc(C(F)(F)F)c(-c4ccn(C)n4)c3)c2c1` (single isomer, unassigned) [Compound 97, (R or S)-N-[5-(1-hydroxyethyl)-2-phenylpyrazolo[1,5-a]pyridin-3-yl]-3-(1-methyl-1H-pyrazol-3-yl)-4-(trifluoromethyl) benzamide], which IC50 is on record?
Its IC50 is 1.9 nM.

Which IC50 does the source give for `Cc1coc(-c2cc(C(=O)Nc3c(-c4ccccc4)nc4cc(C(C)O)ccn34)ccc2C(F)(F)F)n1` (single isomer, unassigned) [Compound 62, (R or S)-N-[7-(1-hydroxyethyl)-2-phenylimidazo[1,2-a]pyridin-3-yl]-3-(4-methyl-1,3-oxazol-2-yl)-4-(trifluoromethyl) benzamide] here?
The IC50 was 1.5 nM.

Which IC50 does the source give for `CC(O)c1ccn2nc(-c3ccccc3)c(NC(=O)c3cc(-c4ccn(C)n4)c(C(F)(F)F)cc3F)c2c1` (single isomer, unassigned) [Compound 106, (R or S)-2-fluoro-N-[5-(1-hydroxyethyl)-2-phenylpyrazolo[1,5-a]pyridin-3-yl]-5-(1-methyl-1H-pyrazol-3-yl)-4-(trifluoromethyl) benzamide] here?
Its IC50 is 1.7 nM.

How did the IC50 turn out when `Cn1ccc(-c2cc(C(=O)Nc3c(-c4ccccc4)nc4cc(N5CCOCC5)ccn34)ccc2C(F)(F)F)n1` [Compound 88, 3-(1-methyl-1H-pyrazol-3-yl)-N-(7-morpholin-4-yl-2-phenylimidazo[1,2-a]pyridin-3-yl)-4-(trifluoromethyl) benzamide] was run?
The IC50 was 1.2 nM.

`CC(O)c1ccc2[nH]c(-c3ccccc3)c(NC(=O)c3cc(-c4ccn(C)n4)c(C(F)(F)F)cc3F)c2c1` (single isomer, unassigned) [Compound 112, (R or S)-2-fluoro-N-[5-(1-hydroxyethyl)-2-phenyl-1H-indol-3-yl]-5-(1-methyl-1H-pyrazol-3-yl)-4-(trifluoromethyl) benzamide] was tested. Which IC50 did it give?
The IC50 was 1.4 nM.

`CC(C)(O)c1ccc2nc(-c3ccccc3)c(NC(=O)c3ccc(C(F)(F)F)c(-c4ncccn4)c3)n2c1` [Compound 44, N-[6-(1-hydroxy-1-methylethyl)-2-phenylimidazo[1,2-a]pyridin-3-yl]-3-pyrimidin-2-yl-4-(trifluoromethyl) benzamide] was tested. Which IC50 did it give?
Its IC50 is 1.4 nM.

Which IC50 does the source give for `Cn1ccc(-c2cc(C(=O)Nc3c(-c4ccccc4)nc4cc(C5CCCN5)ccn34)ccc2C(F)(F)F)n1` (single isomer, unassigned) [Compound 114, (R or S)-3-(1-methyl-1H-pyrazol-3-yl)-N-(2-phenyl-7-pyrrolidin-2-ylimidazo[1,2-a]pyridin-3-yl)-4-(trifluoromethyl) benzamide] here?
Its IC50 is 15 nM.

`CC(O)c1ccn2c(NC(=O)c3cc(-c4ccn(C)n4)c(C(F)(F)F)cc3F)c(-c3ccccc3)nc2c1` (single isomer, unassigned) [Compound 54, (R or S)-2-fluoro-N-[7-(1-hydroxyethyl)-2-phenylimidazo[1,2-a]pyridin-3-yl]-5-(1-methyl-1H-pyrazol-3-yl)-4-(trifluoromethyl) benzamide] was tested. Which IC50 did it give?
Its IC50 is 0.4 nM.

Which IC50 does the source give for `CC(O)c1ccn2nc(-c3ccccc3)c(NC(=O)c3cc(-c4ccn(C)n4)c(C(F)(F)F)cc3F)c2c1` (single isomer, unassigned) [Compound 107, (R or S)-2-fluoro-N-[5-(1-hydroxyethyl)-2-phenylpyrazolo[1,5-a]pyridin-3-yl]-5-(1-methyl-1H-pyrazol-3-yl)-4-(trifluoromethyl) benzamide] here?
Its IC50 is 0.85 nM.

`CN(C)C(=O)c1ccn2c(NC(=O)c3ccc(C(F)(F)F)c(-c4ccn(C)n4)c3)c(-c3ccccc3)nc2c1` [Compound 28, N,N-dimethyl-3-({[3-(1-methyl-1H-pyrazol-3-yl)-4-(trifluoromethyl)phenyl]carbonyl}amino)-2-phenylimidazo[1,2-a]pyridine-7-carboxamide] was tested. Which IC50 did it give?
Its IC50 is 1.3 nM.

For `Cn1ccc(-c2cc(C(=O)Nc3c(-c4ccccc4)nc4ccc(C(C)(C)O)cn34)ccc2C(F)(F)F)n1` [Compound 36, N-[6-(1-hydroxy-1-methylethyl)-2-phenylimidazo[1,2-a]pyridin-3-yl]-3-(1-methyl-1H-pyrazol-3-yl)-4-(trifluoromethyl) benzamide], which IC50 is on record?
The IC50 was 0.34 nM.

Which IC50 does the source give for `COC1CN(Cc2ccn3c(NC(=O)c4ccc(C(F)(F)F)c(-c5ccn(C)n5)c4)c(-c4ccccc4)nc3c2)C1` [Compound 45, N-{7-[(3-methoxyazetidin-1-yl)methyl]-2-phenylimidazo[1,2-a]pyridin-3-yl}-3-(1-methyl-1H-pyrazol-3-yl)-4-(trifluoromethyl) benzamide] here?
The IC50 was 5 nM.

For `CC(O)c1ccc2nc(-c3ccccc3)c(NC(=O)c3ccc(C(F)(F)F)c(-c4ccn(C)n4)c3)n2c1` (single isomer, unassigned) [Compound 48, (R or S)-N-[6-(1-hydroxyethyl)-2-phenylimidazo[1,2-a]pyridin-3-yl]-3-(1-methyl-1H-pyrazol-3-yl)-4-(trifluoromethyl) benzamide], which IC50 is on record?
The IC50 was 1.9 nM.

How did the IC50 turn out when `CC(C)c1cccc2nc(-c3ccccc3)c(NC(=O)c3ccc(C(F)(F)F)cc3F)n12` [Compound 7, 2-fluoro-N-[5-(1-methylethyl)-2-phenylimidazo[1,2-a]pyridin-3-yl]-4-(trifluoromethyl) benzamide] was run?
Its IC50 is 264 nM.

For `CC(O)c1ccn2c(NC(=O)c3cc(-c4cc[nH]n4)c(C(F)(F)F)cc3F)c(-c3ccccc3)nc2c1` (single isomer, unassigned) [Compound 73, (R or S)-2-fluoro-N-[7-(1-hydroxyethyl)-2-phenylimidazo[1,2-a]pyridin-3-yl]-5-(1H-pyrazol-3-yl)-4-(trifluoromethyl) benzamide], which IC50 is on record?
The IC50 was 1.4 nM.

Which IC50 does the source give for `Cc1cc(C(F)(F)F)c(-c2ccn(C)n2)cc1C(=O)Nc1c(-c2ccccc2)nc2cc(C(C)(C)O)ccn12` [Compound 75, N-[7-(1-hydroxy-1-methylethyl)-2-phenylimidazo[1,2-a]pyridin-3-yl]-2-methyl-5-(1-methyl-1H-pyrazol-3-yl)-4-(trifluoromethyl) benzamide] here?
Its IC50 is 4.5 nM.
